# Values of other authors, collected in patent publication US6339092B1, “Metalloprotease inhibitors” (Adir et Compagnie, priority 1999, dated 2002).
# Test system: ovarian cancers
# Conditions: Becket el al., DDT 1996; cited from earlier work
smiles,measurement,value
CNC(=O)[C@H](Cc1ccccc1)NC(=O)[C@H](CC(C)C)[C@H](CSc1cccs1)C(=O)NO [BB94],anti-tumour activity in clinical use,active against ovarian cancers
